Experimental findings from ChEMBL document CHEMBL1671750, “Emergence and molecular characterization of extensively drug-resistant Mycobacterium tuberculosis clinical isolates from the Delhi Region in India” (2010) are described below.

Common to all, as to assay type: functional, organism-based
Assay [1] deals with Mycobacterium tuberculosis. The assay is described as follows: Antimycobacterial activity against extensively drug-resistant Mycobacterium tuberculosis isolate 2301 obtained from sputum of patient at 100 ug/ml by Bactec MGIT960 modified proportion method.
Assay [2] relates to Mycobacterium tuberculosis. In words: Antimycobacterial activity against extensively drug-resistant Mycobacterium tuberculosis isolate 625 obtained from sputum of patient at 100 ug/ml by Bactec MGIT960 modified proportion method.
Assay [3] has as its system Mycobacterium tuberculosis. The assay is described as follows: Antimycobacterial activity against extensively drug-resistant Mycobacterium tuberculosis isolate 2474 obtained from sputum of patient at 100 ug/ml by Bactec MGIT960 modified proportion method.
The test system of assay [4] is Mycobacterium tuberculosis. The assay is described as follows: Antimycobacterial activity against extensively drug-resistant Mycobacterium tuberculosis isolate 2403 obtained from sputum of patient at 100 ug/ml by Bactec MGIT960 modified proportion method.
For assay [5], the system named is Mycobacterium tuberculosis. The assay is described as follows: Antimycobacterial activity against extensively drug-resistant Mycobacterium tuberculosis isolate 2911 obtained from sputum of patient at 100 ug/ml by Bactec MGIT960 modified proportion method.
Assay [6] has as its system Mycobacterium tuberculosis. The assay is described as follows: Antimycobacterial activity against extensively drug-resistant Mycobacterium tuberculosis isolate 761 obtained from pus of patient at 100 ug/ml by Bactec MGIT960 modified proportion method.

Activity calls are given as the source filed them. The rule behind the calls is not given here.

Turning to `NC(=O)c1cnccn1`, the result in assay [1], in assay [2], in assay [3], in assay [4] and in assay [6] was inactive. Further, the result in assay [5] was Active.
